For experiment [1], the system named is CHO cell line producing adalimumab. Nature of the experiment: Glycosylation profile (N-linked glycans released, labeled, chromatography) with arginine in culture. The format is cell-based, Chinese Hamster. On the procedure:
(§1) A transduced CHO cell line was used with three different culture media (Media 1, 2 and 3) in a fed-batch process with 5 different feeds (Feed 1,2,3,4 and 5) and at two culture scales, AMBR system (15 mL culture) and 1 L scale Bioreactors. Feeding strategy was based on maintaining glucose concentration between 3-4 g/L through the addition of different amount of feeding depending on glucose concentration measurement in culture media.
(§2) Process parameters & Conditions AMBR: T: 36.5 °C; Stirrer: 900 rpm; DO: 20%; pH:6.8-7.20; initial density: 0.5x10^6 cells/mL. Process parameters & Conditions 1 L: T: 36.5 °C; Stirrer: 200 rpm/240 rpm (day 7); DO: 20%; pH: 6.8-7.20; initial density: 0.5x10^6 cells/mL.
N-linked glycans were released from IgG samples by overnight incubation with N-glycosidase. The released glycans were labeled with a specific fluorophore. The labeled glycans were bound and separate by a chromatography. N-linked glycan structures were assigned to peaks based on comparison to reference structures. The amount of each structure is expressed as the percentage of total peak area. G0, G1, and G2 refer to complex, neutral, biantennary structures with 0, 1, or 2 terminal galactose residues, while G0F, G1 F, are G2F, are the corresponding core fucosylated structures.
Afucosylation: [GO-GlcNac + G0 + G1 + G2] / [GO-GlcNac + G0 + G0F + G1 + G1 F + G2 + G2F]

The test system is the same in experiment [2]. Nature of the experiment: Viable cell density (VCD) and viability in fed-batch culture with arginine. Type of experiment: cell-based, Chinese Hamster. On the procedure: The cells were cultured in AMBR vessels in the cell culture media described above. The vessels were maintained at 36.5 °C, pH 7±0.2, 20% of DO and at 900 rpm of stirrer. They were seeded at 0.5 x 10^6 cells per ml in a volume of 11 mL. On days 0, 3, and 5, at least 2% of initial culture volume of feed medium and 0.2% of initial culture volume of cystine/tyrosine were added. Day 0 is the day in which the cultures were started, day 1 is the first day thereafter, day 2 is the second day thereafter, etc. Protein titer was determined on days 10, 12, 14 and 16.
The cells were cultured in 1 L scale bioreactor in the above described cell culture media. The cultures were maintained at 36.5 °C, pH 7±0.2, 20% of oxygen dissolved (DO) and at 200 rpm of stirrer. They were seeded at 0.5 x 10^6 cells per ml in a volume of 600mL. On days 0, 3, and 5, at least 2% of initial culture volume of feed medium and 0.2% of initial culture volume of cystine/tyrosine were added.
as §1, §2

[3] abbreviates: Media_1 Feed_2, 2 and 4 g/L arginine, AMBR.

Structures are written as SMILES.

As for `N=C(N)NCCC[C@H](N)C(=O)O` [Arg, arginine], in experiment [1] (Media_2 Feed_1, 4 g/L arginine, day 16, 1 L bioreactor), the “increment in G0 forms” value is “higher than 50%”. Moreover, the “increment in G1 forms” value is listed as “higher than 50%” in experiment [1] (Media_3 Feed_3, 4 g/L arginine, day 14, AMBR) and “higher than 50%” in experiment [1] (Media_3 Feed_4, 4 g/L arginine, day 16, AMBR). The “reduction of VCD (maximum)” value in experiment [2] (setting [3]) was “about 2 million cells”. The viability result in experiment [2] (setting [3]) is listed as “do nott affect viability”. In experiment [2] (Media_1 Feed_2, 8 g/L arginine, AMBR), the “cell growth and viability” value is listed as “important reduction on cell growth affecting viability”. For the same compound, the maximum cell density entry in experiment [2] (Media_2 Feed_1, 0-4 g/L arginine, AMBR) was “does not reduce the maximum cell density reached”; in experiment [2] (Media_2 Feed_1, 4 g/L arginine, 1 L bioreactor), “a delay and a decrease in the obtained maximum cell density”. Moreover, the “maximum VCD” value in experiment [2] (Media_2 Feed_2, 2 g/L arginine, AMBR) is “does not affect maximum VCD”. For the same compound, the cell growth result is “important reduction on cell growth” in experiment [2] (Media_2 Feed_2, 8 g/L arginine, AMBR) and “reduces cell growth” in experiment [2] (Media_3 Feed_1, 2 to 4 g/L arginine, AMBR). Also, the cell density result in experiment [2] (Media_3 Feed_3, 4 g/L arginine in combination with ferric citrate, AMBR) was “does not have a negative effect in cell density”; in experiment [2] (Media_3 Feed_4, 4 g/L arginine in combination with 1 mM 3-methyl butyrate, AMBR), “does not have a negative effect in cell density”.
